Laboratory results from ChEMBL document CHEMBL1151001, “Nonpeptide angiotensin II receptor antagonists: the discovery of DMP 581 and DMP 811” (Bioorg Med Chem Lett, 1994).
Each block holds one molecule with its values, some of them ahead of it.

Assays:
Rattus norvegicus [1] = species: Rattus norvegicus; experiment: Oral antihypertensive potency expressed as effective dose that lowers the mean arterial blood pressure by 30 mm Hg in renal hypertensive rats; format: functional
Rattus norvegicus [2] = experiment: Antihypertensive potency expressed as effective dose (iv) that lowers the mean arterial blood pressure by 30 mm Hg in renal hypertensive rats.; format: functional; conditions: Artery
[3] = Oral bioavailability in dog (dosed as neat powder in hard gelatin capsule); format: ADME, organism-based, Canis lupus familiaris; conditions: in vivo
[4] = Oral bioavailability; format: ADME, organism-based, Canis lupus familiaris; conditions: dog, in vivo

Compound: CCCCc1nc(Cl)c(C(=O)O)n1Cc1ccc(-c2ccccc2-c2nn[nH]n2)cc1 [CARBOXYLIC ACID METABOLITE]
ED30 (Rattus norvegicus [1]): 0.66 mg/kg
ED30 (Rattus norvegicus [2]): 0.038 mg/kg

Compound: CCCc1nc(C(C)(C)C)c(C=O)n1Cc1ccc(-c2ccccc2-c2nn[nH]n2)cc1
ED30 (Rattus norvegicus [1]): 0.048 mg/kg

Compound: CCCc1nc(C(C)C)c(C=O)n1Cc1ccc(-c2ccccc2-c2nn[nH]n2)cc1
ED30 (Rattus norvegicus [1]): 0.13 mg/kg

Compound: CCCc1nc(CC)c(C(=O)OCOC(=O)C(C)C)n1Cc1ccc(-c2ccccc2-c2nn[nH]n2)cc1
ED30 (Rattus norvegicus [1]): 0.03 mg/kg

Compound: CCCc1nc(CC)c(C(=O)OCc2oc(=O)oc2C)n1Cc1ccc(-c2ccccc2-c2nn[nH]n2)cc1
ED30 (Rattus norvegicus [1]): 0.1 mg/kg

Compound: CCCc1nc(CC)c(C(=O)OC(C)OC(=O)OC)n1Cc1ccc(-c2ccccc2-c2nn[nH]n2)cc1 (configuration not stated)
ED30 (Rattus norvegicus [1]): 0.02 mg/kg

bioavailability [3]: 12%
Compound: CCCc1nc(C(F)(F)C(F)(F)F)c(C(=O)O)n1Cc1ccc(-c2ccccc2-c2nnn[nH]2)cc1
ED30 (Rattus norvegicus [1]): 0.21 mg/kg
ED30 (Rattus norvegicus [2]): 0.042 mg/kg

Compound: CCCc1nc(CC(C)C)c(C(=O)O)n1Cc1ccc(-c2ccccc2-c2nn[nH]n2)cc1
ED30 (Rattus norvegicus [1]): 0.87 mg/kg

Compound: CCCCc1nc(CCC)n(Cc2ccc(-c3ccccc3-c3nn[nH]n3)cc2)c1C=O
ED30 (Rattus norvegicus [1]): 1 mg/kg

bioavailability [4]: 15%
Compound: CCCc1nc(CC)c(C(=O)O)n1Cc1ccc(-c2ccccc2-c2nnn[nH]2)cc1
ED30 (Rattus norvegicus [1]): 0.03 mg/kg
ED30 (Rattus norvegicus [2]): 0.005 mg/kg

Compound: CCCc1nc(CC(C)C)c(C=O)n1Cc1ccc(-c2ccccc2-c2nn[nH]n2)cc1
ED30 (Rattus norvegicus [1]): 0.29 mg/kg

Compound: CCCc1nc(CC)c(C(=O)OCOC(=O)OC)n1Cc1ccc(-c2ccccc2-c2nn[nH]n2)cc1
ED30 (Rattus norvegicus [1]): 0.03 mg/kg

Compound: CCCc1nc(CCC)n(Cc2ccc(-c3ccccc3-c3nn[nH]n3)cc2)c1C=O
ED30 (Rattus norvegicus [1]): 0.3 mg/kg

Compound: CCCc1nc(CCC)n(Cc2ccc(-c3ccccc3-c3nn[nH]n3)cc2)c1C(=O)O
ED30 (Rattus norvegicus [1]): 0.63 mg/kg

Compound: CCCc1nc(CC)c(C(=O)OCOC(=O)C(C)(C)C)n1Cc1ccc(-c2ccccc2-c2nn[nH]n2)cc1
ED30 (Rattus norvegicus [1]): 0.03 mg/kg

Compound: CCCCc1nc(Cl)c(CO)n1Cc1ccc(-c2ccccc2-c2nnn[nH]2)cc1 [LOSARTAN]
ED30 (Rattus norvegicus [1]): 0.59 mg/kg
ED30 (Rattus norvegicus [2]): 0.8 mg/kg

Compound: CCCc1nc(C(C)C)c(C(=O)O)n1Cc1ccc(-c2ccccc2-c2nn[nH]n2)cc1
ED30 (Rattus norvegicus [1]): 0.11 mg/kg

bioavailability [3]: 70%
bioavailability [4]: ~100%
Compound: CCCc1nc(CC)c(C=O)n1Cc1ccc(-c2ccccc2-c2nnn[nH]2)cc1
ED30 (Rattus norvegicus [1]): 0.027 mg/kg
ED30 (Rattus norvegicus [2]): 0.11 mg/kg

Compound: CCCc1nc(C(C)CC)c(C(=O)O)n1Cc1ccc(-c2ccccc2-c2nn[nH]n2)cc1 (configuration not stated)
ED30 (Rattus norvegicus [1]): 0.46 mg/kg

Compound: CCCc1nc(C)c(C=O)n1Cc1ccc(-c2ccccc2-c2nn[nH]n2)cc1
ED30 (Rattus norvegicus [1]): 0.1 mg/kg

Compound: CCCc1nc(CC)c(C(=O)OCc2oc(=O)oc2C(C)(C)C)n1Cc1ccc(-c2ccccc2-c2nn[nH]n2)cc1
ED30 (Rattus norvegicus [1]): 0.1 mg/kg

Compound: CCCc1nc(C(C)(C)C)c(C(=O)O)n1Cc1ccc(-c2ccccc2-c2nn[nH]n2)cc1
ED30 (Rattus norvegicus [1]): 0.35 mg/kg

Compound: CCCc1nc(CC)c(C(=O)OCc2oc(=O)oc2-c2ccccc2)n1Cc1ccc(-c2ccccc2-c2nn[nH]n2)cc1
ED30 (Rattus norvegicus [1]): 0.3 mg/kg

Compound: CCCc1nc(CC)c(C(=O)OCOC(=O)OC(C)(C)C)n1Cc1ccc(-c2ccccc2-c2nn[nH]n2)cc1
ED30 (Rattus norvegicus [1]): 0.02 mg/kg

Compound: CCCc1nc(C(C)CC)c(C=O)n1Cc1ccc(-c2ccccc2-c2nn[nH]n2)cc1 (configuration not stated)
ED30 (Rattus norvegicus [1]): 0.33 mg/kg

Compound: CCCCc1nc(CCC)n(Cc2ccc(-c3ccccc3-c3nn[nH]n3)cc2)c1C(=O)O
ED30 (Rattus norvegicus [1]): 1.3 mg/kg

Compound: CCCc1nc(C)c(C(=O)O)n1Cc1ccc(-c2ccccc2-c2nn[nH]n2)cc1
ED30 (Rattus norvegicus [1]): 0.19 mg/kg

Compound: CCCc1nc(CC)c(C(=O)OC(C)OC(=O)OC(C)(C)C)n1Cc1ccc(-c2ccccc2-c2nn[nH]n2)cc1 (configuration not stated)
ED30 (Rattus norvegicus [1]): 0.3 mg/kg
